Like-named read-outs stand apart in the source and are kept apart here.
Assays:
[1] = target: T1, human thymidylate synthase (TS) (Homo sapiens, UniProt P04818); experiment: CETSA primary screen / single-concentration retest, AlphaScreen, live K562 cells; format: cell-based
T1 construct: screening in live, non-engineered cells expressing thymidylate synthase; endogenous in cells; host or cells: K562 (human myelogenous leukemia) cells
Protocol: Compounds were placed in columns 1–22. […] At the day of the experiment the plates were allowed to thaw for 30 min followed by a brief centrifugation step (1,000 × g for 1 min) prior to removal of the seal. The compounds were then diluted with 20 μl supplemented cell culture medium using a Multidrop Combi reagent dispenser (Thermo Scientific). Finally 5 μl of the diluted compounds were transferred to a 384 well hardshell PCR plate (HSR480, BIORAD) using a Bravo liquid handling platform equipped with a 384-well head (Agilent). […] The final concentration of DMSO in the assay was 0.5% in all samples.
The screen procedure started with the addition of 5 μl of a suspension of K562 cells at a density of 10 million cells per ml to all wells of a 384 well hardshell PCR plate (HSR480, BIORAD) using an electronic multichannel pipette (Biohit). […] For the time-course experiments the incubation times were altered to include also 10 min, 30 min and 6 h. […] After the incubation step the plates were transiently heated at 50 °C for 3 min followed by a controlled cooling to 20 °C for 1 min using a real-time PCR machine (LightCycler480 system, Roche). Plate handling was then as described above for the thermal aggregation experiments. The data were analyzed using microsoft excel and GraphPad Prism 6.
A calculation of the average and standard error of means for each set of controls also allowed an illustration of how these responses varied over the 32 screening plates. The Z′ factor[38] is commonly used as a measure of how well the assay separates between the controls and this was calculated as described based on the calculated averages and standard deviations of the controls on a per plate basis. For the Tagg shift and the […] experiments the data were analyzed in GraphPad Prism using the Boltzmann sigmoid equation and the saturation binding curve (rectangular hyperbola; binding isotherm) function, respectively. As already discussed[14] these methods make use of equilibrium models for data analysis although the methodology depends on the irreversible aggregation of denatured material. For this reason we refer to the observed responses as apparent and isothermal dose-response fingerprints and are careful with any quantitative interpretations, being well aware of their dependency on experimental conditions. Experiments are on-going to address the quantitative interpretation of CETSA data.

TS in K562 cell lysates = target: T2, TS in K562 cell lysates (Homo sapiens, UniProt P04818); experiment: Western blot CETSA on K562 cell lysates; format: binding
T2 construct: screening in live, non-engineered cells expressing thymidylate synthase; endogenous in cells; host or cells: K562 (human myelogenous leukemia) cells
Protocol: For the cell lysate thermal shift experiments, cultured K562 cells were harvested and washed with Hank's Balanced Salt Solution. The cells were diluted in lysis buffer supplemented with complete protease inhibitor cocktail. The cell suspensions were freeze-thawed three times using liquid nitrogen and passed through a 27″ gauge needle five times. The soluble fraction (lysate) was separated from the cell debris by centrifugation at 20,000 × g for 20 min at 4 °C. For the thermal aggregation curve experiments cell lysates were diluted with lysis buffer supplemented with 200 μM dUMP and divided into two aliquots, with one aliquot being treated with ligand and the other aliquot with vehicle (control). […] The supernatants containing the remaining soluble proteins were transferred to new 0.2 ml microtubes and analyzed by sodium dodecyl sulfate polyacrylamide gel electrophoresis (SDS-PAGE) followed by western blot analysis.
NuPage Novex Bis-Tris 4–12% polyacrylamide gels with NuPAGE MES SDS running buffer (Life Technologies) were used for separation of proteins in the samples. […] Chemiluminescence intensities were detected and quantified using a ChemiDoc XRS+ imaging system (Bio-Rad) with Image Lab software (Bio-Rad).

TS = TS (Homo sapiens, UniProt P04818); experiment: Thermal shift in vitro assay on recombinant protein; format: binding; parameters: His6 tag with TEV site (vector-encoded by pNIC28-Bsa4); made in house; host or cells: Rosetta BL21-DE3 Escherichia coli
Protocol: The assay was performed on the iCycler iQ Real Time PCR Detection System (Bio-Rad), using the 96-well thin-wall PCR plate (Bio-Rad). The experiment was conducted in a buffer containing 20 mM HEPES at pH 7.5 and 150 mM NaCl. A total volume of 25 μl solution containing 0.2 mg ml^−1 protein, compounds and × 5 Sypro Orange dye (Invitrogen) diluted from 5,000 × stock was dispensed into the 96-well plate. The same amount of DMSO was added in the control wells. The plates were sealed with Microseal B adhesive sealer (Bio-Rad) and heated in iCycler from 25 to 80 °C (56 heating cycles in 28 min). Fluorescent filter used for Sypro Orange measurements was λexcitation=492 nm and λemission=610 nm. The calculation of the midpoint of the curves (Tm) was performed using the software package XLfit from IDBS within microsoft excel.
Decitabine at a concentration of 1 mM was incubated with 1 mg ml^−1 of recombinant DCK and 2.5 mM ATP in a buffer of 50 mM Tris at pH 7.5, 150 mM NaCl and 0.5 mM MgCl2 at room temperature for 60 min to generate the corresponding monophosphates. To probe for nucleotide deamination the samples were further treated with 1 mg ml^−1 of recombinant DCTD in the presence of 1 mM ATP and 10 μM ZnCl2 for 20 min at room temperature. After incubation, the samples were heated at 95 °C for 10 min and centrifuged for 10 min at the highest speed at 4 °C using a benchtop centrifuge. The supernatant was tested without dilution in thermal shift in vitro assays and the TS enzyme inhibition assay. The supernatants from samples without nucleoside were used as the treatment controls.

Chain of TS (P04818 whole entry): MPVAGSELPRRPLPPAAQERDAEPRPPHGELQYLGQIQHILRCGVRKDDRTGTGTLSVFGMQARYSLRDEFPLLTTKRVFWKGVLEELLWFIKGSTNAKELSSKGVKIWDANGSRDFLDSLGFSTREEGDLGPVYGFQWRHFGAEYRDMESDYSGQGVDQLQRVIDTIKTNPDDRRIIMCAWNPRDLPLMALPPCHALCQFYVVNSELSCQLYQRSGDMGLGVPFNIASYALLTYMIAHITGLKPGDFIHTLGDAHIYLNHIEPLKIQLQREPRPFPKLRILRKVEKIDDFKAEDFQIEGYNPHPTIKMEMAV
T2 sequence (P04818 2-313 limits assumed): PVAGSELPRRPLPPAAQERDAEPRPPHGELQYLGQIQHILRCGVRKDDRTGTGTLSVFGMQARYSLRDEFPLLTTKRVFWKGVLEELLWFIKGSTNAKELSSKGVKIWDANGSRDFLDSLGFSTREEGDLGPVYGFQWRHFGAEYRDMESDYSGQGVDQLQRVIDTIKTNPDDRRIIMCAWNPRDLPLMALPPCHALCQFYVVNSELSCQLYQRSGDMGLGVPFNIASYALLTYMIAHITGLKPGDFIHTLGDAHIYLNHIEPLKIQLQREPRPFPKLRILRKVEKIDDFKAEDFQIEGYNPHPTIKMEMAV
T1 sequence (P04818 2-313 limits assumed): as above

% stabilization in screen at 50 µM ([1]; K562, 2 h; read-out: % stabilization in screen) [%] | Tagg shift of TS in K562 cell lysates (TS in K562 cell lysates; 200 μM compound, lysate with 200 μM dUMP) [°C] | ΔTm at 25 µM (TS; 25 μM compound, 500 μM dUMP, read-out: thermal shift of isolated recombinant human TS) [°C] | ΔTm at 100 µM (TS; 100 μM compound, 500 μM dUMP, read-out: thermal shift of isolated recombinant human TS) [°C] | Structure (SMILES) | % stabilization in screen at 50 µM ([1]; K562, 2 h, read-out: % stabilization in screen) [%] | stabilization of TS in treated K562 lysates (TS in K562 cell lysates; 200 µM decitabine) | stabilization of recombinant TS (TS; 1 mM decitabine after treatment with recombinant DCK) | stabilization of recombinant TS in thermal shift assay (TS; nucleoside without enzyme treatment) | ΔTm at 1000 µM (TS; read-out: thermal shift of recombinant TS) [°C]
20 | 3.7 | 2.6 | 5.2 | Cc1cc(O)nc2sc(C(=O)c3ccccc3)c(N)c12 [CBK115334, 3-amino-2-benzoyl-4-methylthieno(2,3-b)pyridin-6-ol] |  |  |  |  | 
 |  |  |  | Nc1ncn([C@H]2C[C@H](O)[C@@H](CO)O2)c(=O)n1 [decitabine, 5-Aza-deoxycytidine] | 91 | not stabilized | only a marginal stabilization | did not stabilize | ~10
